Results on eight compounds are retold here after PubChem BioAssay (NCI).

Structures are written as SMILES. Several values for one entry are separate records, joined by “and”; a condition that tells them apart may be missing. Identical values can stand only once.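 Test compounds were applied to cells in 96-well plates for 48 hours at 5 doses. GI50 marks 50% less growth. At the TGI there is no net growth.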

Test systems include A549 NSCLC; CAKI-1 renal; HS 578T breast; LOX IMVI melanoma; OVCAR-3 ovarian; OVCAR-8 ovarian; SK-OV-3 ovarian; SN12C renal; U251 CNS; UACC-257 melanoma.
Holding throughout (experiment): inhibition of tumour cell growth, NCI panel, 48 h

`COc1ccc(-c2nc(-c3ccccn3)c(-c3ccccn3)n2CC(C)C)cc1OC1CCCC1`: the GI50 in the experiment with A549 NSCLC was 9.02 µM; with CAKI-1 renal, 7.44 µM; with HS 578T breast, 9.71 µM; with LOX IMVI melanoma it was 26.1 µM; in the experiment with OVCAR-3 ovarian, 30.3 µM; with OVCAR-8 ovarian it was 17.3 µM. The GI50 is 27.6 µM in the experiment on SK-OV-3 ovarian, 24.5 µM in the experiment on SN12C renal, 20.6 µM with U251 CNS and 26.2 µM in the experiment with UACC-257 melanoma. The TGI stood at 65.1 µM in the experiment on A549 NSCLC; 90.2 µM in the experiment on CAKI-1 renal; 79.4 µM with HS 578T breast; 110 µM with LOX IMVI melanoma; 114 µM in the experiment on OVCAR-3 ovarian; 158 µM with OVCAR-8 ovarian. Moreover, the TGI with SK-OV-3 ovarian was 116 µM; with SN12C renal it was over 165 µM; in the experiment with U251 CNS, 86.9 µM; in the experiment on UACC-257 melanoma, 95.3 µM.

Regarding `CN(C)c1ccc2cc3ccc(N(C)C)cc3nc2c1`, the TGI amounted to 7.49 µM in the experiment with A549 NSCLC; 13.5 µM in the experiment on CAKI-1 renal; 10.7 µM in the experiment with HS 578T breast; 3.63 µM in the experiment with LOX IMVI melanoma; 13.4 µM in the experiment on OVCAR-3 ovarian; 5.62 µM with OVCAR-8 ovarian. The TGI stood at 13.9 µM with SK-OV-3 ovarian, 7.28 µM in the experiment with SN12C renal, 5.79 µM in the experiment on U251 CNS and 24.8 µM with UACC-257 melanoma.

For the compound `CC(=O)Nc1ccc(-c2csc(Nc3cccc(-c4csc(-c5ccccc5)n4)c3)n2)cc1`, the GI50 was 15.3 µM in the experiment on A549 NSCLC; 17.5 µM with CAKI-1 renal; 37.2 µM in the experiment with HS 578T breast; 7.71 µM in the experiment with LOX IMVI melanoma; 20.4 µM with OVCAR-3 ovarian; 15.6 µM in the experiment with OVCAR-8 ovarian. The GI50 in the experiment on SK-OV-3 ovarian is over 50 µM; in the experiment with SN12C renal it was 8.2 µM; in the experiment on U251 CNS it was 10.4 µM; in the experiment on UACC-257 melanoma it was 19 µM. The TGI in the experiment with A549 NSCLC was over 50 µM; with CAKI-1 renal, over 50 µM; with HS 578T breast, over 50 µM; in the experiment on LOX IMVI melanoma, 18.1 µM; in the experiment with OVCAR-3 ovarian, over 50 µM; with OVCAR-8 ovarian it was over 50 µM. Further, the TGI with SK-OV-3 ovarian is over 50 µM; with SN12C renal it was 27.6 µM; in the experiment with U251 CNS it was over 50 µM; in the experiment on UACC-257 melanoma, over 50 µM.

For `COc1ccc(/C=N\NC(=O)c2ccc3nc(-c4ccc(Cl)cc4)[nH]c3c2)cc1`, the GI50 in the experiment on A549 NSCLC is 2.46 µM; in the experiment on CAKI-1 renal, 2.1 µM; in the experiment on HS 578T breast it was 2.3 µM; in the experiment on LOX IMVI melanoma it was 2.19 µM; in the experiment on OVCAR-3 ovarian it was 2.28 µM; in the experiment with OVCAR-8 ovarian, 3.19 µM. The GI50 with SK-OV-3 ovarian was 2.3 µM; with SN12C renal, 2.46 µM; in the experiment with U251 CNS, 2.43 µM; in the experiment on UACC-257 melanoma, 3.27 µM. Besides, the TGI in the experiment with A549 NSCLC worked out at 5.65 µM; with CAKI-1 renal, 6.03 µM; in the experiment on HS 578T breast, 5.64 µM; in the experiment with LOX IMVI melanoma, 4.01 µM; in the experiment on OVCAR-3 ovarian, 5.14 µM; in the experiment on OVCAR-8 ovarian, 11.5 µM. The TGI in the experiment on SK-OV-3 ovarian was 12.8 µM; in the experiment on SN12C renal, 6.79 µM; in the experiment with U251 CNS it was 5.22 µM; in the experiment with UACC-257 melanoma, 10.1 µM.

As for `CN1CCN(c2ccc3nc(-c4[nH]ncc4Nc4ncnc5c4OCCCN5)[nH]c3c2)CC1`, the GI50 with A549 NSCLC was under 0.01 µM; with CAKI-1 renal, under 0.01 µM; in the experiment with HS 578T breast, under 0.01 µM; in the experiment on LOX IMVI melanoma it was under 0.01 µM; in the experiment with OVCAR-3 ovarian, under 0.01 µM; in the experiment with OVCAR-8 ovarian it was 0.0176 µM. Besides, the GI50 in the experiment on SK-OV-3 ovarian is under 0.0108 µM; in the experiment on SN12C renal, under 0.01 µM; with U251 CNS, under 0.01 µM; in the experiment with UACC-257 melanoma it was 0.0252 µM. The TGI in the experiment on A549 NSCLC was 0.116 µM; in the experiment on CAKI-1 renal, 0.0805 µM; in the experiment on HS 578T breast, 0.0302 µM; in the experiment on LOX IMVI melanoma, 0.0202 µM; with OVCAR-3 ovarian, 0.0422 µM; with OVCAR-8 ovarian, 0.593 µM. For the same compound, the TGI in the experiment on SK-OV-3 ovarian was 0.202 µM; in the experiment on SN12C renal it was 0.12 µM; in the experiment on U251 CNS, 0.123 µM; with UACC-257 melanoma it was 0.213 µM.

On to `COc1ccc(C(=O)/C=C/c2cc(-c3ccc4c(c3)OCO4)n[nH]2)cc1OC`, for which the GI50 was 2.7 µM in the experiment with A549 NSCLC; 1.9 µM with CAKI-1 renal; 2.69 µM in the experiment with HS 578T breast; 1.97 µM in the experiment with LOX IMVI melanoma; 2.02 µM with OVCAR-3 ovarian; 2.15 µM in the experiment with OVCAR-8 ovarian. In addition, the GI50 was 3.97 µM in the experiment with SK-OV-3 ovarian, 3.25 µM with SN12C renal, 1.58 µM in the experiment with U251 CNS and 7.06 µM in the experiment with UACC-257 melanoma. Besides, the TGI with A549 NSCLC is 15.8 µM; in the experiment with CAKI-1 renal, 4.33 µM; with HS 578T breast, 8.21 µM; with LOX IMVI melanoma it was 4.08 µM; with OVCAR-3 ovarian, 4.61 µM; with OVCAR-8 ovarian it was 5.82 µM. The TGI was determined as 26.4 µM in the experiment on SK-OV-3 ovarian, 13.6 µM with SN12C renal, 5.37 µM in the experiment with U251 CNS and 22.1 µM with UACC-257 melanoma.

Turning to `CC#CC#C/C=C1\C=CC2(OC=CC2OC(C)=O)O1` (stereo not drawn), the TGI was over 100 µM in the experiment on A549 NSCLC; 31.2 µM in the experiment with CAKI-1 renal; over 100 µM in the experiment with HS 578T breast; > 100 µM and 31.7 µM in the experiment with LOX IMVI melanoma; 74.4 µM in the experiment on OVCAR-3 ovarian; > 100 µM and 51.7 µM in the experiment on OVCAR-8 ovarian. For the same compound, the TGI was over 100 µM with SK-OV-3 ovarian; 36.5 µM and 31 µM with SN12C renal; 43.1 µM and 33.2 µM in the experiment with U251 CNS; > 100 µM and 33.6 µM with UACC-257 melanoma. For the same compound, the GI50 in the experiment with UACC-257 melanoma is 30.5 µM and 15 µM.

On to `O=C1C(Br)=C(Br)C(=O)c2ccccc21`, for which the TGI was 55.8 µM with A549 NSCLC; 13.7 µM in the experiment on CAKI-1 renal; over 60.7 µM in the experiment with HS 578T breast; 31.4 µM and 12.3 µM in the experiment on LOX IMVI melanoma; 32.4 µM and 27.7 µM in the experiment on OVCAR-3 ovarian; 30.9 µM and 57 µM in the experiment with OVCAR-8 ovarian. In addition, the TGI was 31.1 µM and 13.2 µM in the experiment on SK-OV-3 ovarian; 30.2 µM and 17.1 µM in the experiment on SN12C renal; 31.3 µM and 4.68 µM in the experiment with U251 CNS; 32.6 µM and 16.7 µM in the experiment with UACC-257 melanoma. For the same compound, the GI50 with LOX IMVI melanoma was 16.5 µM and 4.69 µM; in the experiment with OVCAR-3 ovarian, 17.9 µM and 8.34 µM; with OVCAR-8 ovarian, 17 µM and 7.06 µM; in the experiment with SK-OV-3 ovarian, 16.1 µM and 5.4 µM; with SN12C renal, 16.4 µM and 5.09 µM; in the experiment with U251 CNS it was 17.5 µM and 2.16 µM. Also, the GI50 with UACC-257 melanoma is 18.2 µM and 8.21 µM.
